Experimental data as given in PMC12508063, “Chloroindazole based estrogen receptor β ligands with favorable pharmacokinetics promote functional remyelination and visual recovery” (Scientific Reports, 2025).
“And” between values parts separate entries of the source, which are not always exact repeats. Identical values can stand only once. Counter-ions that a name gives are not always drawn.

How the values were obtained:
[1] = test system: co-cultures of primary cortical neurons and OPCs; experiment: Axon myelination in co-cultures of primary cortical neurons and OPCs; type: cell-based, mouse; details: K102, K110 10 nM; Clemastine, Bazedoxifene 500 nM; 5 days
CYP2C9 = CYP2C9 (Homo sapiens, UniProt P11712); experiment: CYP inhibition; details: human
CYP3A4 = CYP3A4 (Homo sapiens, UniProt P08684); experiment: in vitro
[2] = Stability in human plasma; type: in vitro ADME
[3] = Plasma protein binding (mouse)
[4] = Plasma protein binding (human)
CYP2D6 = CYP2D6 (Homo sapiens, UniProt P10635); experiment: CYP inhibition; details: human, probe Dextromethorphan
ERβ = molecular target: T1, ERβ (Homo sapiens, UniProt Q92731); experiment: ER reporter gene assay in HEK 293 T cells (ER-luciferase reporter); type: cell-based; details: for Reporter gene assay raw data, ERb: ERb data block (head r19), 4 replicate columns; for ERb reporter gene assay raw data (response): four replicate columns per compound
T1 construct: expressed in transfected cells; host or cells: HEK 293 T cells

ERα = molecular target: T2, ERα (Homo sapiens, UniProt P03372); experiment: as above; type: cell-based; details: for Reporter gene assay raw data, ERa: 4 replicate columns
T2 construct: expressed in transfected cells; host or cells: HEK 293 T cells
T2 sequence (P03372 1-595): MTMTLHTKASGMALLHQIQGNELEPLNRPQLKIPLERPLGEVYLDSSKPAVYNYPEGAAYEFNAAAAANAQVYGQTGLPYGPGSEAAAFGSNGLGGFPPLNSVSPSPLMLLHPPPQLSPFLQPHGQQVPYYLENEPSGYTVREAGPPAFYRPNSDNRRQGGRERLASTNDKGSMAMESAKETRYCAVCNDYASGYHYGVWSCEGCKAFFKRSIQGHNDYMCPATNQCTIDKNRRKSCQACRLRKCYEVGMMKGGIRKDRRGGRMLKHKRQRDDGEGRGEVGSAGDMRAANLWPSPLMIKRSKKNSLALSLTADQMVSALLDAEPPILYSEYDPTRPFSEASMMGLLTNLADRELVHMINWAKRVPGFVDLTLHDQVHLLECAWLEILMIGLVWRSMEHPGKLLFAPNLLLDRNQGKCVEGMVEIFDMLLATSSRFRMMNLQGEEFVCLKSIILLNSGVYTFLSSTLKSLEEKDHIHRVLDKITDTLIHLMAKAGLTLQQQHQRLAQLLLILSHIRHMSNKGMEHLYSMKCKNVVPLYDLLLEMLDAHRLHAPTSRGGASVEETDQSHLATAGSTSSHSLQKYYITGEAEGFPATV

T1 sequence (Q92731 whole entry, species assumed): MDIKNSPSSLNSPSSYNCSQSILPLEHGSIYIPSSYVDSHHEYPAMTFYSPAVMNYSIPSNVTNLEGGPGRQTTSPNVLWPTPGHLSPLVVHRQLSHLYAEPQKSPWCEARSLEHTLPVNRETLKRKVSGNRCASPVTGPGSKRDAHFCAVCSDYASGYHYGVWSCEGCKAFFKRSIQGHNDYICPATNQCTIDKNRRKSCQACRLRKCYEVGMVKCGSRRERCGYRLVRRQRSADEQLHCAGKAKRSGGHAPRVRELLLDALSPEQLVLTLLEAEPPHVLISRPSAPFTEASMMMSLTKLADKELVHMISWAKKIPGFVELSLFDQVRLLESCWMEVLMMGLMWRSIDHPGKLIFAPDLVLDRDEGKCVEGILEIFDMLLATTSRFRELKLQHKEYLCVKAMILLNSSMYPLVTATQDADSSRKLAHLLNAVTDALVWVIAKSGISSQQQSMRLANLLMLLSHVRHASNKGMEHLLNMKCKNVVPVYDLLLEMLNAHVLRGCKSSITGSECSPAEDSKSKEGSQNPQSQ
Sequence of CYP3A4 (P08684 whole entry): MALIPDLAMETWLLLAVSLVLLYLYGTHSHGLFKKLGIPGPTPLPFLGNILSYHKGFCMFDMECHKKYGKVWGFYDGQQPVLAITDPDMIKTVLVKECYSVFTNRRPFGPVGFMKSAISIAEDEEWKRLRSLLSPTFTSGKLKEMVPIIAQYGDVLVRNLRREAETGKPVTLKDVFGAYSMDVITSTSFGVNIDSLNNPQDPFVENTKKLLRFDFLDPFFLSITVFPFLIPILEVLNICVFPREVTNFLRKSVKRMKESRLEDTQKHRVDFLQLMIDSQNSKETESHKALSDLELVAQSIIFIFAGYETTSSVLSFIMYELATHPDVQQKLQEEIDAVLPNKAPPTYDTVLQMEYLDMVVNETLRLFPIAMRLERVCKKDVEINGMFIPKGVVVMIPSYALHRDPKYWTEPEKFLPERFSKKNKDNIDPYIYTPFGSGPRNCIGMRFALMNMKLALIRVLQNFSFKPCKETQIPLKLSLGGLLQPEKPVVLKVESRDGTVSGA
Sequence of CYP2C9 (P11712 whole entry): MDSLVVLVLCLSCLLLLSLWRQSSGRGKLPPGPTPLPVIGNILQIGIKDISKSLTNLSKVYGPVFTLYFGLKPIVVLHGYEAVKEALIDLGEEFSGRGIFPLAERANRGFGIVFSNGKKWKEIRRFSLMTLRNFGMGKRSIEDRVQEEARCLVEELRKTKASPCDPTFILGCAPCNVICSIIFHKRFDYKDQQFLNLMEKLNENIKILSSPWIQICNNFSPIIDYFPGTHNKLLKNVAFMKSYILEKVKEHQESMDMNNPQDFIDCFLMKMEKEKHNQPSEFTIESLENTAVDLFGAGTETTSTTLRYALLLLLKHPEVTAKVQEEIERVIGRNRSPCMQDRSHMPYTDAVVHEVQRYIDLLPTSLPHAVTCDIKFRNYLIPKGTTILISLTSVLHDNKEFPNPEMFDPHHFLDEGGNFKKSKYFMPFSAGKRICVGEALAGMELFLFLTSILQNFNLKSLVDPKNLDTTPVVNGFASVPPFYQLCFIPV
Sequence of CYP2D6 (P10635 whole entry): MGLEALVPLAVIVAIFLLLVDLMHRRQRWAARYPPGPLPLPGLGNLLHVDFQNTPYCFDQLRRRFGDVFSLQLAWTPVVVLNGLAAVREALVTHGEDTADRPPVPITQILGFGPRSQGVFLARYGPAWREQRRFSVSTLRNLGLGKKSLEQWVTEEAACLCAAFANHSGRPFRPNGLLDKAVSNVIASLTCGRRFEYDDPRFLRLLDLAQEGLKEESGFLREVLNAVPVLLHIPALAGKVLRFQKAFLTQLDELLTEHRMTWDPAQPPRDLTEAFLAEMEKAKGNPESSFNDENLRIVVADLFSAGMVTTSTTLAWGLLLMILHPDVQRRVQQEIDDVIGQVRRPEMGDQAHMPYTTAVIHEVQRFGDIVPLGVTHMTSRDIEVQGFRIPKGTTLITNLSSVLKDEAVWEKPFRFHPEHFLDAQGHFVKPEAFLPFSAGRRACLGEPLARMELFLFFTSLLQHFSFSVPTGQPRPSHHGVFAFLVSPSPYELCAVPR

CN1CCC[C@@H]1CCO[C@](C)(c1ccccc1)c1ccc(Cl)cc1 [Clemastine, Clemastine fumarate]
OL processes wrapping axons [1]: significant increase

Nc1ccc(S(=O)(=O)Nc2ccnn2-c2ccccc2)cc1 [Sulfaphenazole]
inhibition at 10 µM (CYP2C9): 93.9%

CC(=O)N1CCN(c2ccc(OCC3COC(Cn4ccnc4)(c4ccc(Cl)cc4Cl)O3)cc2)CC1 (stereo not shown) [Ketoconazole]
inhibition at 10 µM (CYP3A4; CYP Inhibition Percentage CYP3A4-M): 95.5% | inhibition at 10 µM (CYP3A4; CYP Inhibition Percentage CYP3A4-T): 92.5%

CC(=O)CC(c1ccccc1)c1c(O)c2ccccc2oc1=O (stereo not shown) [Wafarine]
% Remaining at 6 hr in Human Plasma [2]: 111.24% | Protein Binding (% Bound) Mouse [3]: 93.11% | Protein Binding (% Bound) Human [4]: 98.68%

C=C[C@H]1C[N@@]2CC[C@H]1C[C@@H]2[C@@H](O)c1ccnc2ccc(OC)cc12 [Quinidine]
inhibition at 10 µM (CYP2D6): 92.7%

Oc1ccc(-n2nc3ccc(O)cc3c2Cl)cc1 [Compound K-101]
Reporter gene assay raw data, ERb (ERβ; Log M -6): 120.988 and 116.157 and 143.98 and 147.219 | ERb reporter gene assay raw data (response) (ERβ; Log M -6): 111.44 and 122.263 and 112.615 and 103.371 | Reporter gene assay raw data, ERb (ERβ; Log M -6.47756): 114.841 and 114.867 and 137.295 and 151.298 | ERb reporter gene assay raw data (response) (ERβ; Log M -6.47756): 99.9004 and 104.917 and 98.5023 and 107.756 | Reporter gene assay raw data, ERb (ERβ; Log M -6.95468): 124.443 and 116.848 and 139.382 and 142.558 | ERb reporter gene assay raw data (response) (ERβ; Log M -6.95468): 103.919 and 109.742 and 107.029 and 112.5 | Reporter gene assay raw data, ERb (ERβ; Log M -7.4318): 110.594 and 113.713 and 119.524 and 142.929 | ERb reporter gene assay raw data (response) (ERβ; Log M -7.4318): 106.837 and 108.962 and 105.441 and 101.954 | Reporter gene assay raw data, ERb (ERβ; Log M -7.91009): 112.17 and 111.487 and 138.169 and 129.452 | ERb reporter gene assay raw data (response) (ERβ; Log M -7.91009): 109.149 and 102.176 and 94.3567 and 106.552 | Reporter gene assay raw data, ERb (ERβ; Log M -8.3851): 117.284 and 114.634 and 116.673 and 134.281 | ERb reporter gene assay raw data (response) (ERβ; Log M -8.3851): 104.39 and 105.189 and 99.3517 and 108.832 | Reporter gene assay raw data, ERb (ERβ; Log M -8.86328): 116.233 and 118.325 and 116.611 and 129.233 | ERb reporter gene assay raw data (response) (ERβ; Log M -8.86328): 100.866 and 91.0385 and 99.5048 and 94.2764 | Reporter gene assay raw data, ERb (ERβ; Log M -9.34008): 83.1588 and 87.5707 and 97.8302 and 99.1529 | ERb reporter gene assay raw data (response) (ERβ; Log M -9.34008): 78.6235 and 76.3041 and 74.4798 and 84.9468 | Reporter gene assay raw data, ERb (ERβ; Log M -9.81816): 46.3463 and 45.2097 and 53.3712 and 57.2512 | ERb reporter gene assay raw data (response) (ERβ; Log M -9.81816): 51.4383 and 42.8216 and 46.1589 and 42.3832 | Reporter gene assay raw data, ERb (ERβ; Log M -10.2941): 13.5511 and 13.5131 and 21.4772 and 19.6971 | ERb reporter gene assay raw data (response) (ERβ; Log M -10.2941): 11.6805 and 12.8501 and 11.4455 and 13.5515 | Reporter gene assay raw data, ERb (ERβ; Log M -10.7721): 2.426 and 2.349 and 4.55 and 3.395 | ERb reporter gene assay raw data (response) (ERβ; Log M -10.7721): 3.239 and 2.8663 and 1.689 and 3.053 | Reporter gene assay raw data, ERb (ERβ; Log M -11.248): 1.344 and 1.212 and 1.016 and 0.8144 | ERb reporter gene assay raw data (response) (ERβ; Log M -11.248): 2.211 and 0.8495 and 0.02026 and 1.717 | ERb reporter gene assay raw data (response) (ERβ; Log M -13): 0.5566 and -0.5566 and 0.8119 and -0.8119 | Reporter gene assay raw data, ERa (ERα; Log M -6, first ERa data block (head r2)): 104.545 and 98.5711 and 90.2001 and 86.8078 | Reporter gene assay raw data, ERa (ERα; Log M -6, second ERa data block (head r34)): 95.025 and 94.1762 and 88.9253 and 94.8982 | Reporter gene assay raw data, ERa (ERα; Log M -6.47756, first ERa data block (head r2)): 85.5888 and 84.856 and 83.9539 and 86.1821 | Reporter gene assay raw data, ERa (ERα; Log M -6.47756, second ERa data block (head r34)): 88.8265 and 82.9979 and 83.8682 and 89.3798 | Reporter gene assay raw data, ERa (ERα; Log M -6.95468, first ERa data block (head r2)): 74.2269 and 77.1348 and 79.6996 and 75.9439 | Reporter gene assay raw data, ERa (ERα; Log M -6.95468, second ERa data block (head r34)): 78.2124 and 79.7922 and 76.8721 and 73.4179 | Reporter gene assay raw data, ERa (ERα; Log M -7.4318, first ERa data block (head r2)): 58.4425 and 53.4049 and 54.6387 and 66.4913 | Reporter gene assay raw data, ERa (ERα; Log M -7.4318, second ERa data block (head r34)): 66.1364 and 63.6537 and 63.2155 and 63.5605 | Reporter gene assay raw data, ERa (ERα; Log M -7.91009, first ERa data block (head r2)): 54.5242 and 53.4131 and 49.5391 and 50.4679 | Reporter gene assay raw data, ERa (ERα; Log M -7.91009, second ERa data block (head r34)): 55.1309 and 61.6988 and 46.1658 and 50.4053 | Reporter gene assay raw data, ERa (ERα; Log M -8.3851, first ERa data block (head r2)): 36.2798 and 37.8765 and 41.0912 and 38.4728 | Reporter gene assay raw data, ERa (ERα; Log M -8.3851, second ERa data block (head r34)): 40.2636 and 45.8507 and 39.6541 and 35.9505 | Reporter gene assay raw data, ERa (ERα; Log M -8.86328, first ERa data block (head r2)): 20.0299 and 22.3737 and 21.1668 and 19.8353 | Reporter gene assay raw data, ERa (ERα; Log M -8.86328, second ERa data block (head r34)): 25.3166 and 18.7166 and 21.7026 and 19.2485 | Reporter gene assay raw data, ERa (ERα; Log M -9.34008, first ERa data block (head r2)): 7.216 and 7.17 and 5.351 and 7.624 | Reporter gene assay raw data, ERa (ERα; Log M -9.34008, second ERa data block (head r34)): 6.164 and 5.9134 and 5.736 and 5.474 | Reporter gene assay raw data, ERa (ERα; Log M -9.81816, first ERa data block (head r2)): 1.823 and 1.931 and 1.019 and 2.136 | Reporter gene assay raw data, ERa (ERα; Log M -9.81816, second ERa data block (head r34)): 0.6247 and 1.953 and 0.3211 and 0.779 | Reporter gene assay raw data, ERa (ERα; Log M -10.2941, first ERa data block (head r2)): 1.733 and 1.446 and -0.6404 and -0.6096 | Reporter gene assay raw data, ERa (ERα; Log M -10.2941, second ERa data block (head r34)): -0.6765 and 0.406 and -1.087 and 0.2814 | Reporter gene assay raw data, ERa (ERα; Log M -10.7721, first ERa data block (head r2)): -0.886 and -0.01848 and -1.926 and -0.988 | Reporter gene assay raw data, ERa (ERα; Log M -10.7721, second ERa data block (head r34)): -1.593 and -1.3667 and -0.9474 and 0.114 | Reporter gene assay raw data, ERa (ERα; Log M -11.248, first ERa data block (head r2)): -1.205 and 0.7176 and 0.3903 and 0.3615 | Reporter gene assay raw data, ERa (ERα; Log M -11.248, second ERa data block (head r34)): -1.908 and -0.2669 and 0.1993 and -0.8382 | ERa reporter gene assay raw data (response) (ERα; Log M -13, four replicate columns per compound): 0.8253 and -0.8253 and 1.478 and -1.478
